Experimental data taken from US4450269A, “Mono-5-substituted-3-chloro-4H-1,2,6-thiadiazin-4-one antifungal agents” (FMC Corporation, priority 1980, dated 1984).
Where a name gives a salt, the structure may show the parent alone.

Columns and labels:
Venturia inaequalis = assay: Spore germination test; type: cell-based; conditions: VI, 48 hours
Protocol: VI = Venturia inaequalis
The test chemical was dissolved or suspended in acetone in an amount such that 0.8 ml of the resulting suspension or solution, mixed with 40 ml water agar produced a water agar solution containing 40, 10, 2.5 and 1 ppm of test chemical. The resulting agar solution, at 50° C., was then divided equally between two sterile petri dishes, each having four separated quadrants, and allowed to solidify. […] quadrants of each dish were flooded with 0.1 ml of a spore suspension in sterile water. Spores of two pathogens, Erysiphe polygoni and Uromyes phaseoli, from infected plant leaves, were brushed on the remaining two quadrants. The tests were then incubated 48 hours, at 24° C.
Readings were then taken and the percentage of germinated spores calculated. From this percentage, a spore germination rating was assigned as follows: […]

Botrytis cinerea = assay: Spore germination test; type: cell-based; conditions: BC, 48 hours
Procedure, shortened: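 Compound was delivered in acetone into water agar at final 40, 10, 2.5 and 1 ppm. Alternaria solani and Botrytis cinerea spores were applied as sterile-water suspensions, while Erysiphe polygoni and Uromyces phaseoli spores were brushed on from infected leaves. After 48 h at 24° C., percentage germination was converted to a rating.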

| Structure (SMILES) | Spore Germination Rating (Venturia inaequalis; 1.0 ppm) | Spore Germination Rating (Venturia inaequalis; 2.5 ppm) | Spore Germination Rating (Venturia inaequalis; 10 ppm) | Spore Germination Rating (Venturia inaequalis; 40 ppm) | Spore Germination Rating (Botrytis cinerea; 1.0 ppm) | Spore Germination Rating (Botrytis cinerea; 2.5 ppm) | Spore Germination Rating (Botrytis cinerea; 10 ppm) | Spore Germination Rating (Botrytis cinerea; 40 ppm) | Spore Germination Rating (Venturia inaequalis; 1.0 ppm, hydrochloride) | Spore Germination Rating (Venturia inaequalis; 2.5 ppm, hydrochloride) | Spore Germination Rating (Venturia inaequalis; 10 ppm, hydrochloride) | Spore Germination Rating (Venturia inaequalis; 40 ppm, hydrochloride) | Spore Germination Rating (Botrytis cinerea; 1.0 ppm, hydrochloride) |
| --- | --- | --- | --- | --- | --- | --- | --- | --- | --- | --- | --- | --- | --- |
| O=c1c(Cl)nsnc1Oc1ccc(Cl)cc1Cl [Compound 17, 3-chloro-5-(2,4-dichlorophenoxy)-4H--1,2,6-thiadiazin-4-one] | 0 (0-10) | 0 (0-10) | 0 (0-10) | 0 (0-10) | 4 (80-100) | 0 (0-10) | 0 (0-10) | 0 (0-10) | – | – | – | – | – |
| O=c1c(Cl)nsnc1Oc1c(Cl)cccc1Cl [Compound 18, 3-chloro-5-(2,6-dichlorophenoxy)-4H--1,2,6-thiadiazin-4-one] | 1 (10-40) | 0 (0-10) | 0 (0-10) | 0 (0-10) | 4 (80-100) | 1 (10-40) | 0 (0-10) | 0 (0-10) | – | – | – | – | – |
| O=c1c(Cl)nsnc1Oc1cccc(Cl)c1Cl [Compound 19, 3-chloro-5-(2,3-dichlorophenoxy)-4H--1,2,6-thiadiazin-4-one] | 1 (10-40) | 0 (0-10) | 0 (0-10) | 0 (0-10) | 4 (80-100) | 1 (10-40) | 0 (0-10) | 0 (0-10) | – | – | – | – | – |
| O=c1c(Cl)nsnc1Oc1cc(Cl)cc(Cl)c1 [Compound 20, 3-chloro-5-(3,5-dichlorophenoxy)-4H--1,2,6-thiadiazin-4-one] | 0 (0-10) | 0 (0-10) | 0 (0-10) | 0 (0-10) | 4 (80-100) | 0 (0-10) | 0 (0-10) | 0 (0-10) | – | – | – | – | – |
| Cc1cccc(Oc2nsnc(Cl)c2=O)c1 [Compound 21, 3-chloro-5-(3-methylphenoxy)-4H--1,2,6-thiadiazin-4-one] | 4 (80-100) | 3 (60-80) | 0 (0-10) | 0 (0-10) | 4 (80-100) | 3 (60-80) | 0 (0-10) | 0 (0-10) | – | – | – | – | – |
| Cc1ccccc1Oc1nsnc(Cl)c1=O [Compound 22, 3-chloro-5-(2-methylphenoxy)-4H--1,2,6-thiadiazin-4-one] | 0 (0-10) | 0 (0-10) | 0 (0-10) | 0 (0-10) | 2 (40-60) | 0 (0-10) | 0 (0-10) | 0 (0-10) | – | – | – | – | – |
| Cc1ccc(Oc2nsnc(Cl)c2=O)c(C)c1 [Compound 23, 3-chloro-5-(2,4-dimethylphenoxy)-4H--1,2,6-thiadiazin-4-one] | 4 (80-100) | 3 (60-80) | 1 (10-40) | 0 (0-10) | 4 (80-100) | 4 (80-100) | 4 (80-100) | 0 (0-10) | – | – | – | – | – |
| Cc1cccc(C)c1Oc1nsnc(Cl)c1=O [Compound 24, 3-chloro-5-(2,6-dimethylphenoxy)-4H--1,2,6-thiadiazin-4-one] | 2 (40-60) | 0 (0-10) | 0 (0-10) | 0 (0-10) | 3 (60-80) | 1 (10-40) | 0 (0-10) | 0 (0-10) | – | – | – | – | – |
| Cc1cc(C)cc(Oc2nsnc(Cl)c2=O)c1 [Compound 25, 3-chloro-5-(3,5-dimethylphenoxy)-4H--1,2,6-thiadiazin-4-one] | 4 (80-100) | 0 (0-10) | 2 (40-60) | 0 (0-10) | 2 (40-60) | 1 (10-40) | 0 (0-10) | 0 (0-10) | – | – | – | – | – |
| Nc1ccc(Oc2nsnc(Cl)c2=O)cc1 [Compound 26, 5-(4-aminophenoxy)-3-chloro-4H--1,2,6-thiadiazin-4-one] | 4 (80-100) | 4 (80-100) | 4 (80-100) | 1 (10-40) | 0 (0-10) | 0 (0-10) | 0 (0-10) | 0 (0-10) | – | – | – | – | – |
| Nc1ccc(Oc2nsnc(Cl)c2=O)cc1 [Compound 27, 5-(4-aminophenoxy)-3-chloro-4H--1,2,6-thiadiazine-4-one hydrochloride] | – | – | – | – | – | – | – | – | 0 (0-10) | 0 (0-10) | 0 (0-10) | 0 (0-10) | 1 (10-40) |
| CNC(=O)Nc1ccc(Oc2nsnc(Cl)c2=O)cc1 [Compound 28, 3-chloro-5-[4-(3-methylureido)-phenoxy]-4H--1,2,6-thiadiazin-4-one] | 4 (80-100) | 4 (80-100) | 2 (40-60) | 3 (60-80) | 4 (80-100) | 1 (10-40) | 0 (0-10) | 0 (0-10) | – | – | – | – | – |
| O=C(Nc1ccccc1)Nc1ccc(Oc2nsnc(Cl)c2=O)cc1 [Compound 29, 3-chloro-5-[4-(3-phenylureido)-phenoxy]-4H--1,2,6-thiadiazin-4-one] | 4 (80-100) | 4 (80-100) | 4 (80-100) | 0 (0-10) | 3 (60-80) | 3 (60-80) | 2 (40-60) | 2 (40-60) | – | – | – | – | – |
| O=c1c(Cl)nsnc1Oc1c(Cl)cc(Cl)cc1Cl [Compound 30, 3-chloro-5-(2,4,6-trichlorophenoxy)-4H--1,2,6-thiadiazin-4-one] | 1 (10-40) | 0 (0-10) | 0 (0-10) | 0 (0-10) | 0 (0-10) | 0 (0-10) | 0 (0-10) | 0 (0-10) | – | – | – | – | – |
| O=c1c(Cl)nsnc1Oc1c(Cl)c(Cl)c(Cl)c(Cl)c1Cl [Compound 31, 3-chloro-5-(pentachlorophenoxy)-4H--1,2,6-thiadiazine-4-one] | 0 (0-10) | 0 (0-10) | 0 (0-10) | 0 (0-10) | 1 (10-40) | 1 (10-40) | 1 (10-40) | 0 (0-10) | – | – | – | – | – |
| O=c1c(Cl)nsnc1Oc1cccc2ccccc12 [Compound 32, 3-chloro-5(1-naphthoxy)-4H-1,2,6-thiadiazin-4-one] | 3 (60-80) | 0 (0-10) | 0 (0-10) | 0 (0-10) | 2 (40-60) | 0 (0-10) | 0 (0-10) | 0 (0-10) | – | – | – | – | – |
| O=c1c(Cl)nsnc1Oc1ccccc1Br [Compound 34, 3-chloro-5-(2-bromophenoxy)-4H-1,2,6,-thiadiazin-4-one] | 0 (0-10) | 0 (0-10) | 0 (0-10) | 0 (0-10) | 2 (40-60) | 0 (0-10) | 0 (0-10) | 0 (0-10) | – | – | – | – | – |
| CC(=O)Nc1cccc(Oc2nsnc(Cl)c2=O)c1 [Compound 42, 3-[(3-N--acetylamino)-phenoxy]-5-chloro-4H--1,2,6-thiadiazin-4-one] | 4 (80-100) | 4 (80-100) | 4 (80-100) | 1 (10-40) | 4 (80-100) | 4 (80-100) | 4 (80-100) | 1 (10-40) | – | – | – | – | – |
| CC(=O)Nc1ccccc1Oc1nsnc(Cl)c1=O [Compound 43, 3-[(2-acetylamino)-phenoxy]-5-chloro-4H--1,2,6-thiadiazin-4-one] | 4 (80-100) | 4 (80-100) | 4 (80-100) | 2 (40-60) | 4 (80-100) | 4 (80-100) | 4 (80-100) | 3 (60-80) | – | – | – | – | – |
| O=c1c(Cl)nsnc1Oc1cccc(C(F)(F)F)c1 [Compound 44, 3-chloro-5-[(3-trifluoromethyl)phenoxy]-4H--1,2,6-thiadiazin-4-one] | 1 (10-40) | 1 (10-40) | 0 (0-10) | 0 (0-10) | 4 (80-100) | 3 (60-80) | 0 (0-10) | 0 (0-10) | – | – | – | – | – |
| O=C(O)Cc1ccccc1Oc1nsnc(Cl)c1=O [Compound 45, 3-(2-carboxymethylphenoxy)-5-chloro-4H--1,2,6-thiadiazin-4-one] | 4 (80-100) | 4 (80-100) | 4 (80-100) | 0 (0-10) | 4 (80-100) | 4 (80-100) | 4 (80-100) | 2 (40-60) | – | – | – | – | – |
| CC(=O)c1ccc(Oc2nsnc(Cl)c2=O)cc1 [Compound 47, 3-(4-acetylphenoxy)-5-chloro-4H--1,2,6-thiadiazin-4-one] | 1 (10-40) | 0 (0-10) | 0 (0-10) | 0 (0-10) | 4 (80-100) | 1 (10-40) | 0 (0-10) | 0 (0-10) | – | – | – | – | – |
